{
  "source": "patent US20210155671A1",
  "about": "(priority 2019, published 2021)",
  "key": {"Raji": {"system": "Raji", "assay_type": "cell-based"}, "Daudi": {"system": "Daudi", "assay_type": "cell-based"}, "HBL-1": {"system": "HBL-1", "assay_type": "cell-based"}, "CD20": {"target": "CD20 (Homo sapiens, UniProt P11836)", "sequence (P11836 whole entry)": "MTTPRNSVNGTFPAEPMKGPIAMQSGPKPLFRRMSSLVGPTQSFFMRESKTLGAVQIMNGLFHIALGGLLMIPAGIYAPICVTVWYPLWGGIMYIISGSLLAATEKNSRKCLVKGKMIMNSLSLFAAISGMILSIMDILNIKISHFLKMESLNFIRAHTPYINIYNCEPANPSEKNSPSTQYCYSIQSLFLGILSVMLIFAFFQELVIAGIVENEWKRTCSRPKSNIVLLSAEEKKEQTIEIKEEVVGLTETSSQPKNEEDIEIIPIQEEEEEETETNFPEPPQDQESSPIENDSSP", "details": "at 37° C.; cited from earlier work"}, "SU-DHL-4": {"system": "SU-DHL-4", "assay_type": "cell-based"}, "lymphoma (Daudi) cells": {"system": "lymphoma (Daudi) cells", "assay_type": "cell-based", "description": "The cytotoxicity of Molecule 001 in combination with lenalidomide was also tested in vitro, in lymphoma (Daudi) cells. […] Following this, Molecule 001 was added and viability was measured after an additional 3 days, using the Promega® Cell Titer-Gb® assay (FIG. 19C)."}, "[1]": {"system": "Burkitt's lymphoma (ST-486) cells", "assay_type": "cell-based", "details": "72 hours", "description": "The cytotoxicity of Molecule 001 in combination with lenalidomide was also tested in Burkitt's lymphoma (ST-486) cells. The cells were incubated with Molecule 001 only, lenalidomide only, or a combination of Molecule 001 and lenalidomide. Cell viability was measured 72 hours after treatment using the Promega® Cell TiterGlo® assay (FIG. 19E)."}},
  "data": [
    {"molecule": "COc1cccc2c1C(=O)c1c(O)c3c(c(O)c1C2=O)C[C@@](O)(C(=O)CO)C[C@@H]3O[C@H]1C[C@H](N)[C@H](O)[C@H](C)O1", "note": "[Doxorubicin]", "values": [
      {"measurement": "In vitro responses to Molecule 001 in combination with chemotherapy", "setting": "Raji", "result": "Synergistic"},
      {"measurement": "In vitro responses to Molecule 001 in combination with chemotherapy", "setting": "Daudi", "result": "Mixed"},
      {"measurement": "In vitro responses to Molecule 001 in combination with chemotherapy", "setting": "HBL-1", "result": "Synergistic"}
    ]},
    {"molecule": "rituximab", "values": [
      {"measurement": "time to maximal cellular internalization", "setting": "CD20", "result": "16 to 18", "unit": "h"}
    ]},
    {"molecule": "CC[C@]1(O)C[C@H]2CN(CCc3c([nH]c4ccccc34)[C@@](C(=O)OC)(c3cc4c(cc3OC)N(C=O)[C@H]3[C@@](O)(C(=O)OC)[C@H](OC(C)=O)[C@]5(CC)C=CCN6CC[C@]43[C@@H]65)C2)C1", "note": "[Vincristine]", "values": [
      {"measurement": "In vitro responses to Molecule 001 in combination with chemotherapy", "setting": "Raji", "result": "Synergistic"}
    ]},
    {"molecule": "N.N.[Cl][Pt][Cl]", "note": "[Cisplatin]", "values": [
      {"measurement": "In vitro responses to Molecule 001 in combination with chemotherapy", "setting": "Raji", "result": "Synergistic"},
      {"measurement": "In vitro responses to Molecule 001 in combination with chemotherapy", "setting": "SU-DHL-4", "result": "Mixed"},
      {"measurement": "In vitro responses to Molecule 001 in combination with chemotherapy", "setting": "Daudi", "result": "Mixed"}
    ]},
    {"molecule": "Cn1c(CCCC(=O)O)nc2cc(N(CCCl)CCCl)ccc21", "note": "[Bendamustine]", "values": [
      {"measurement": "In vitro responses to Molecule 001 in combination with chemotherapy", "setting": "SU-DHL-4", "result": "Synergistic"},
      {"measurement": "In vitro responses to Molecule 001 in combination with chemotherapy", "setting": "Daudi", "result": "Synergistic"},
      {"measurement": "In vitro responses to Molecule 001 in combination with chemotherapy", "setting": "HBL-1", "result": "Synergistic"}
    ]},
    {"molecule": "Nc1ccn([C@@H]2O[C@H](CO)[C@@H](O)C2(F)F)c(=O)n1", "note": "[Gemcitabine]", "values": [
      {"measurement": "In vitro responses to Molecule 001 in combination with chemotherapy", "setting": "Raji", "result": "Synergistic"}
    ]},
    {"molecule": "Nc1cccc2c1CN(C1CCC(=O)NC1=O)C2=O", "note": "(stereo not shown) [lenalidomide]", "values": [
      {"measurement": "toxicity of Molecule 001 on cells pre-treated with lenalidomide (isobologram)", "setting": "lymphoma (Daudi) cells; Daudi cells pre-treated with lenalidomide for 24 hours, then Molecule 001, viability after additional 3 days", "result": "synergistic toxicity"},
      {"measurement": "potency of the combination of Molecule 001 and LEN against lymphoma cells", "setting": "lymphoma (Daudi) cells; versus either agent alone", "result": "significantly greater potency against lymphoma cells than either agent alone"},
      {"measurement": "effect of lenalidomide on the activity of Molecule 001", "setting": "[1]", "result": "no effect on the activity of Molecule 001"},
      {"measurement": "effect of lenalidomide on cell viability", "setting": "[1]; concentrations used in this assay", "result": "little effect on cell viability"}
    ]}
  ]
}
